{"source": "patent US12569576B2", "about": "“Compositions and methods for measuring oxidative stress” (Washington University, priority 2020, dated 2026)", "key": {"A549 cells [1]": {"system": "A549 cells", "experiment": "Galuminox uptake in LPS-treated or serum/glucose deprived A549 cells with ROS-attenuating drugs", "format": "cell-based, human", "conditions": "LPS-treated or nutrient deprived A549 cells; Galuminox 20 μM 60 min", "protocol": "For evaluation of therapeutic effects of drugs, such as Carvedilol (CAR), Dexrazoxane (DEX), and mitoTempo (MT) on either serum/glucose deprived media- or LPS-induced superoxide production, A549 cells were incubated with either LPS (1 μg/mL) or serum/glucose deprived (starvation) media for 24 h, and thereafter incubated with Carvedilol, Dexrazoxane, and mitoTempo 24 h at 37° C. Next day, media was removed from wells, cells were carefully rinsed with PBS (2×200 μL), fresh media (200 μL) was added, and cells were incubated with Galuminox (20 μM) at 37° C. for 60 min. For controls, untreated cells were incubated with Galuminox (20 μM) under identical conditions. Thereafter, fluorescence images were acquired, and cellular uptake was quantified as described above."}, "A549 cells [2]": {"system": "A549 cells", "experiment": "Live cell fluorescence imaging, cellular accumulation in LPS-treated A549 cells", "format": "cell-based, human", "conditions": "LPS 1 μg/mL 24 h", "protocol": "Human alveolar basal epithelial (A549) adenocarcinoma cells were grown in Dulbecco's Modified Eagle Medium (DMEM) supplemented with 1-glutamine (2 mM), penicillin/streptomycin (200 IU.) and heat-inactivated fetal calf serum (10%). The cells were grown at 37° C. under a 5% CO2 atmosphere.\nLive cell fluorescence imaging studies were performed at Washington University Center for Cellular Imaging (WUCCI). For imaging studies, A549 cells or their mt-Keima transfected counterparts were plated onto borosilicate 8-well chambered coverglass (Labtek) and allowed to grow to approximately 70% confluence at 37° C. under 5% CO2 atmosphere in the culture media (200 μL) and treated with LPS (1 μg/mL) for 24 h. Following LPS treatments, all wells were rinsed with fresh media. […] Images were processed and analyzed using the ImageJ software package (NIH). […] For analysis, ROIs were drawn on cells of both channels, scatter plots were obtained, and Pearson's Correlation Coefficients (PCC) were determined as described previously (K. W. Dunn, M. M. Kamocka, J. H. McDonald. A practical guide to evaluating colocalization in biological microscopy. Am. J. Physiol. Cell Physiol., 300 (2011), pp. C723-C742.)."}, "left transplanted lung": {"system": "left transplanted lung", "experiment": "MicroPET/CT imaging in mouse lung transplant model of CLAD", "format": "in vivo, mice", "conditions": "4 days post left lung transplant; PET/CT 30 min post injection, 20 min static scan", "protocol": "The next experiment was an evaluation of Galuminox in a mouse lung transplant model of CLAD. Allogeneic (FVB) left lung recipients (B16 mice) were treated with immunosuppression agents CD40L and CTLA4Ig to induce tolerance. Despite treatment with immunosuppressant drugs, allogeneic transplants show OB lesions as a function of time, normally defined as early stages of disease progression (early CLAD) and late stages of disease progression (fulminant CLAD).\n4 days post left lung transplant from FVB mice (donor) into B16 mice (acceptor), both transplanted mice and un-transplanted control counterparts were imaged using PET/CT 30 minutes post tail-vein administration of ^68Ga-Galuminox using static acquisition scan of 20 min (FIG. 12A). PET images were co-registered with CT for anatomical correlation. Standard Uptake Values (SUVs) were determined by drawing ROI, and counts were normalized to injected dose and weights of animals (FIG. 12B)."}, "[3]": {"system": "ROS activity in acutely injured lungs", "experiment": "Preclinical PET/CT imaging, mouse model of LPS-mediated acute lung injury", "format": "in vivo", "conditions": "for Standard Uptake Value (SUV) in lungs: n=4, frames 45-60 min", "protocol": "All animal procedures were approved by the Washington University Animal Studies Committee. Imaging and biodistribution studies were performed in C57Bl6 mice (average weight, 24 g). Male mice (n=4) were treated either with LPS at a dose of 5 μg/g or vehicle (saline) 24 h prior to imaging/biodistribution studies. For these studies, mice were anesthetized with isoflurane (2.0%) via an induction chamber and maintained with a nose cone. After anesthetization, the mice were secured in a supine position and placed in an acrylic imaging tray. Following intravenous tail-vein administration of ^68Ga-Galuminox (100 μL; 100 μCi; 2% ethanol in saline, 3.7 MBq), dynamic preclinical PET scans were performed over 60 min, using Inveon PET/CT scanner (Siemens Medical Solutions). PET data were stored in list mode, and reconstruction was performed using a 3D-OSEM method with detector efficiency, decay, dead time, attenuation, and scatter corrections applied. For anatomical visualization, PET images were also co-registered with CT images from an Inveon PET/CT scanner. ROIs were drawn over the lung, and standard uptake values (SUV) were calculated as the mean radioactivity per injected dose per animal weight."}, "[4]": {"experiment": "Biodistribution studies (post preclinical imaging)", "format": "in vivo, C57Bl6 mice", "conditions": "for Biodistribution, Bladder / Biodistribution, Blood / Biodistribution, Bone / Biodistribution, Brain / Biodistribution, Colon / Biodistribution, Fat / Biodistribution, Heart / Biodistribution, Intestine / Biodistribution, Kidney / Biodistribution, Liver / Biodistribution, Lung / Biodistribution, Muscle: 60 min, mean, n=4", "excerpt": "All animal procedures were approved by the Washington University Animal Studies Committee. Following microPET/CT imaging, mice (n=4) were euthanized by cervical dislocation. Blood samples were obtained by cardiac puncture, organs then harvested rapidly, and all tissue samples analyzed for γ-activity using Beckman Gamma 8000 counter. All samples were decay-corrected to the time the γ-counter was started. Standard samples were counted with the organs for each animal and represent […] of the injected dose. An additional dose was diluted into milliQ water (100 mL) and aliquots (1 mL) were counted with each mouse. Data were quantified as the percentage injected dose (% ID) per gram of tissue (tissue kBq (injected kBq)^−1 (g tissue)^−1×100) in Table 2, shown below."}, "[5]": {"conditions": "LPS vs saline, 1 h post injection"}}, "note": "Where “and” joins values, the source holds several entries; their conditions need not be identical. Equal entries are not always repeated.", "data": [{"smiles": "COc1ccccc1OCCNCC(O)COc1cccc2[nH]c3ccccc3c12", "note": "(stereo not drawn) [CAR, Carvedilol]", "values": [{"measurement": "Galuminox probe uptake in the presence of the drug compared to control A549 cells", "setting": "A549 cells [1]", "value": "significantly decreased"}]}, {"smiles": "C[C@@H](CN1CC(=O)NC(=O)C1)N1CC(=O)NC(=O)C1", "note": "[DEX, Dexrazoxane]", "values": [{"measurement": "Galuminox probe uptake in the presence of the drug compared to control A549 cells", "setting": "A549 cells [1]", "value": "significantly decreased"}]}, {"smiles": "CC1(C)CC(NC(=O)C[P+](c2ccccc2)(c2ccccc2)c2ccccc2)CC(C)(C)N1[O]", "note": "[Mito-Tempo]", "values": [{"measurement": "Galuminox probe uptake in the presence of the drug compared to control A549 cells", "setting": "A549 cells [1]", "value": "significantly decreased"}]}, {"smiles": "Nc1ccc2c(c1)C(c1ccccc1)N(CCCCCC[P+](c1ccccc1)(c1ccccc1)c1ccccc1)c1cc(N)ccc1-2.[I-]", "note": "(stereo not drawn) [MitoSOX]", "values": [{"measurement": "probe fluorescence, LPS stimulated vs untreated A549 control cells", "setting": "A549 cells [2]", "value": "higher fluorescence"}]}, {"smiles": "O=C(CNC(=S)Nc1ccc(CC2CN3CCN4CCN2CC(=O)[O][68Ga]([O]C(=O)C4)[O]C(=O)C3)cc1)Nc1cccc2c(=O)[nH][nH]c(=O)c12", "note": "(stereo not drawn) [^68Ga-Galuminox]", "values": [{"measurement": "higher uptake in the left transplanted lung compared with untransplanted mice (SUV)", "setting": "left transplanted lung", "value": 1.5, "unit": "fold"}, {"measurement": "SUV time-activity curves, retention in lungs of LPS-treated mice", "setting": "[3]; 0-60 min dynamic PET", "value": "consistently higher and stable retention"}, {"measurement": "Standard Uptake Value (SUV) in lungs", "setting": "[3]; LPS-treated mice (5 μg/g, 24 h)", "value": "12.9±1.85"}, {"measurement": "mode of excretion (PET pharmacokinetics)", "setting": "[3]; mouse, in vivo", "value": "dominant renal mode of probe excretion"}, {"measurement": "Standard Uptake Value (SUV) in lungs", "setting": "[3]; saline (vehicle) only treated mice", "value": "2.62±0.48"}, {"measurement": "excretion profiles (biodistribution)", "setting": "[4]; 1 h post injection", "value": "both hepatobiliary- and renal-modes of excretion"}, {"measurement": "Biodistribution, Bladder", "setting": "[4]; Control (saline)", "value": 162.956, "unit": "% ID/g"}, {"measurement": "Biodistribution, Blood", "setting": "[4]; Control (saline)", "value": "2.82±0.88 % ID/g and 2.822 % ID/g"}, {"measurement": "Biodistribution, Bone", "setting": "[4]; Control (saline)", "value": "1.0±0.34 % ID/g and 1.002 % ID/g"}, {"measurement": "Biodistribution, Brain", "setting": "[4]; Control (saline)", "value": 0.5693, "unit": "% ID/g"}, {"measurement": "Biodistribution, Colon", "setting": "[4]; Control (saline)", "value": 0.8617, "unit": "% ID/g"}, {"measurement": "Biodistribution, Fat", "setting": "[4]; Control (saline)", "value": 0.6117, "unit": "% ID/g"}, {"measurement": "Biodistribution, Heart", "setting": "[4]; Control (saline)", "value": 2.381, "unit": "% ID/g"}, {"measurement": "Biodistribution, Intestine", "setting": "[4]; Control (saline)", "value": 4.286, "unit": "% ID/g"}, {"measurement": "Biodistribution, Kidney", "setting": "[4]; Control (saline)", "value": 13.0965, "unit": "% ID/g"}, {"measurement": "Biodistribution, Liver", "setting": "[4]; Control (saline)", "value": "6.14±0.66 % ID/g and 6.138 % ID/g"}, {"measurement": "Biodistribution, Lung", "setting": "[4]; Control (saline)", "value": "39.7±19.3 % ID/g and 39.7 % ID/g"}, {"measurement": "Biodistribution, Muscle", "setting": "[4]; Control (saline)", "value": 1.084, "unit": "% ID/g"}, {"measurement": "Biodistribution, Bladder", "setting": "[4]; LPS treated", "value": 5.893, "unit": "% ID/g"}, {"measurement": "Biodistribution, Blood", "setting": "[4]; LPS treated", "value": "3.96±1.83 % ID/g and 3.96 % ID/g"}, {"measurement": "Biodistribution, Bone", "setting": "[4]; LPS treated", "value": "2.14±0.57 % ID/g and 2.138 % ID/g"}, {"measurement": "Biodistribution, Brain", "setting": "[4]; LPS treated", "value": 0.2628, "unit": "% ID/g"}, {"measurement": "Biodistribution, Colon", "setting": "[4]; LPS treated", "value": 0.2924, "unit": "% ID/g"}, {"measurement": "Biodistribution, Fat", "setting": "[4]; LPS treated", "value": 0.3021, "unit": "% ID/g"}, {"measurement": "Biodistribution, Heart", "setting": "[4]; LPS treated", "value": 1.073, "unit": "% ID/g"}, {"measurement": "Biodistribution, Intestine", "setting": "[4]; LPS treated", "value": 1.314, "unit": "% ID/g"}, {"measurement": "Biodistribution, Kidney", "setting": "[4]; LPS treated", "value": 3.048, "unit": "% ID/g"}, {"measurement": "Biodistribution, Liver", "setting": "[4]; LPS treated", "value": "10.5±1.68 % ID/g and 10.46 % ID/g"}, {"measurement": "Biodistribution, Lung", "setting": "[4]; LPS treated", "value": "147.9±25.8 % ID/g and 147.8875 % ID/g"}, {"measurement": "Biodistribution, Muscle", "setting": "[4]; LPS treated", "value": 0.294, "unit": "% ID/g"}, {"measurement": "bone retention, LPS vs saline", "setting": "[4]; [5]", "value": 2.1, "unit": "fold"}, {"measurement": "higher retention in lungs of LPS treated mice vs saline-only (biodistribution)", "setting": "[4]; [5]", "value": 4, "unit": "fold"}, {"measurement": "higher retention in the blood of LPS treated mice vs saline", "setting": "[4]; [5]", "value": 1.4, "unit": "fold"}, {"measurement": "liver retention, LPS vs saline", "setting": "[4]; [5]", "value": 1.7, "unit": "fold"}, {"measurement": "higher specific retention in lungs of LPS treated mice (lung normalized to blood)", "setting": "[4]; lung 4 fold / blood 1.4 fold", "value": "3 fold and 2.85 fold"}]}]}
